Converted amounts (≈) assume the structure as drawn.
How the values were obtained:
[1] = tested on: Neisseria gonorrhea Sand.; test: gradient-plate agar-dilution method; assay type: cell-based
[2] = tested on: Staphylococcus aureus 3055; test: experimental bacterial infection in mice; assay type: in vivo; settings: Staphylococcus aureus, 3055, sc, sc, two doses, challenge 1,260 × LD50 (ip), read-out: ED50 × 2
Mycoplasma hyopneumoniae = test: in vitro broth-dilution studies, mycoplasma; assay type: cell-based
Text: (§1) The minimal inhibitory concentrations (MIC's) of A-40104 factor A; 19,20-dihydro-A-40104 factor A; and the tetraacetyl derivative of A-40104A against various mycoplasma species, as determined by in vitro broth-dilution studies, are summarized in Table IX.

Mycoplasma hyorhinis = test: in vitro broth-dilution studies, mycoplasma; assay type: cell-based
Text: as §1

Mycoplasma gallisepticum = test: in vitro broth-dilution studies, mycoplasma; assay type: cell-based
Text: as §1

Mycoplasma synoviae = test: in vitro broth-dilution studies, mycoplasma; assay type: cell-based
Text: as §1

Bacteroides vulgatis = test: standard agar-dilution test, anaerobic bacteria; assay type: cell-based; settings: 2 h
Bacteroides corrodens = test: standard agar-dilution test, anaerobic bacteria; assay type: cell-based; settings: Eikenella corrodens, 2 h
Clostridium perfringens = test: microbe, parasite or virus in culture; assay type: cell-based
Diplococcus pneumoniae = test: standard disc-plate assay; assay type: cell-based; settings: Streptococcus pneumoniae, disc diameter 6.35 mm, read-out: Zone Diameters
Procedure: (§2) In one important aspect of this activity, the A-40104 antibiotics inhibit the growth of organisms which are resistant to other antibiotics. In Table IV the standard disc-plate-assay activity of A-40104 factors A and B against representative organisms is summarized. Activity is measured as the diameter (in mm) of the observed zone of inhibition; the diameter of disc used in each case was 6.35 mm.

[3] = tested on: Staphylococcus aureus 3130; test: standard disc-plate assay; assay type: cell-based; settings: Methicillin resistant, disc diameter 6.35 mm, read-out: Zone Diameters
Procedure: as §2

[4] = tested on: Staphylococcus aureus 3074; test: standard disc-plate assay; assay type: cell-based; settings: Penicillin-G resistant, disc diameter 6.35 mm, read-out: Zone Diameters
Procedure: as §2

Streptococcus pyogenes = test: standard disc-plate assay; assay type: cell-based; settings: Group A, disc diameter 6.35 mm, read-out: Zone Diameters
Procedure: as §2

[5] = tested on: Staphylococcus aureus 3055; test: standard disc-plate assay; assay type: cell-based; settings: Penicillin-G susceptible, disc diameter 6.35 mm, read-out: Zone Diameters
Procedure: as §2

[6] = tested on: Bacteroides Melaninogenicus 2736; test: standard agar-dilution test, anaerobic bacteria; assay type: cell-based; settings: 2 h
Bacteroides fragilis 111 = test: standard agar-dilution test, anaerobic bacteria; assay type: cell-based; settings: Bacteroides fragilis, 111, 2 h
[7] = tested on: Hemophilus influenzae 260; test: gradient-plate agar-dilution method; assay type: cell-based; settings: Haemophilus influenzae

## C=CC1(C)CC(OC(=O)CO[C@@H]2OC[C@@H](O)[C@H](O)[C@H]2O)C2(C)C(C)CCC3(CCC(=O)C32)C(C)C1O (stereo partly drawn) [A-40104 factor A, β,D-xylopyranosyl acetal derivative of pleuromutilin]
[1]
  MIC: 0.07 µg/mL (≈ 0.137 µM)
[2]
  ED50: 15.7 mg/kg
Mycoplasma hyopneumoniae
  minimal inhibitory concentration (MIC): 0.195
Mycoplasma hyorhinis
  minimal inhibitory concentration (MIC): 1.56
Mycoplasma gallisepticum
  minimal inhibitory concentration (MIC): ≤ 0.78
Mycoplasma synoviae
  minimal inhibitory concentration (MIC): ≤ 0.78
Bacteroides vulgatis
  MIC: 4 µg/mL (≈ 7.83 µM)
Bacteroides corrodens
  MIC: 8 µg/mL (≈ 15.7 µM)
Clostridium perfringens
  MIC: 8 µg/mL (≈ 15.7 µM)
Diplococcus pneumoniae; 10 mcg/disc
  zone of inhibition at 10 µg/disc: 14 mm
Diplococcus pneumoniae; 100 mcg/disc
  zone of inhibition at 100 µg/disc: 20 mm
[3]; 10 mcg/disc
  zone of inhibition at 10 µg/disc: 29.2 mm
[3]; 100 mcg/disc
  zone of inhibition at 100 µg/disc: 34 mm
[4]; 10 mcg/disc
  zone of inhibition at 10 µg/disc: 25.4 mm
[4]; 100 mcg/disc
  zone of inhibition at 100 µg/disc: 29.2 mm
Streptococcus pyogenes; 10 mcg/disc
  zone of inhibition at 10 µg/disc: 21 mm
Streptococcus pyogenes; 100 mcg/disc
  zone of inhibition at 100 µg/disc: 27 mm
[5]; 10 mcg/disc
  zone of inhibition at 10 µg/disc: 27.2 mm
[5]; 100 mcg/disc
  zone of inhibition at 100 µg/disc: 31.2 mm
[6]
  MIC: 4 µg/mL (≈ 7.83 µM)
Bacteroides fragilis 111
  MIC: 8 µg/mL (≈ 15.7 µM)
[7]
  MIC: 0.7 µg/mL (≈ 1.37 µM)
